Measurements reported in patent US12240890B2, “Compositions and methods for treating and/or preventing pathogenic fungal infection and for maintenance of microbiome commensalism” (priority 2017, dated 2025).

Experiments:
[1] = test system: C. albicans strain SC5314; test: crystal violet based biofilm assay (24 hours, OD600); type: cell-based, Candida albicans; details: crystal violet staining, 10-20 uM of respective peptides
Description: FIG. 13. […] Biofilm formation was measured in an assay that quantitates biofilms by staining with a crystal violet dye. The amount of dye absorbed by the biofilm positively correlates with amount of biofilm present. Amount of dye is measured via an optical density reading at a wavelength of 600 nm (OD600). Biofilm formation is measured over 24 hours in the presence or absence of peptides at 10, 30, or 40 uM concentrations.
(§1) Candida albicans (sc3514 cited in: Romanowski et al. PLOS One 7: e30119, 2012.: incorporated by reference in its entirety) and Candida tropicalis (ATCC #13803) were maintained in frozen glycerol stocks at −80° C. and streaked out on yeast-peptone-dextrose (YPD) agar plates for 48 hours at 30° C. prior to use. Single colonies were selected and cultured in YPD media at 30° C. Biofilm assays were performed using crystal violet straining (Taff et al. Med Mycol 50:214-218, 2012.: incorporated by reference in its entirety) in the presence of 10-20 uM of respective peptides. To induce hyphal growth, strains were placed in YPD+5% FBS or RPMI media at 37° C. for 4 hours. To image hyphal membrane disruption, the DNA binding fluorescent dye, propidium iodide (PI), was added to wells strains in the presence of peptides and imaged under bright field and far red fluorescent conditions. […] To investigate Candida albican virulence gene expression, 10 μL of a 1.0 OD600 culture were placed in 1 mL RPMI at 37° C. with shaking for 8 hours. Cultures were centrifuged at 3000×g for 5 minutes and RNA isolation was performed as described below.
Antifungal activity of peptides described in this application was tested by performing a crystal violet based biofilm assay. In this assay, Candida albicans is induced to form a biofilm in a 96-well plate for 24 hours in the presence or absence of peptide. Biofilm formation is quantitated through crystal violet staining and solubilization followed by optical density reading. […] Data are OD600 values normalized to appropriate within experiment vehicle control. Statistical analysis was performed via 2-Way ANOVA with multiple comparisons post-test. Significance is denoted by: *=p<0.05; **=p<0.01; ***-p<0.001; ****=p<0.0001. ns=not significant.

Candida albicans = Candida albicans culture growth; type: cell-based; details: hyphal inducing conditions (broth culture containing serum)
C. albicans = test: respiration of C. albicans; type: cell-based, Candida albicans
C. tropicalis = test: respiration of C. tropicalis; type: cell-based, Candida tropicalis
[2] = test system: Candida albicans virulence genes; test: virulence gene expression by qRT-PCR; type: cell-based; details: hyphal form, RPMI at 37° C., compared with scrambled peptide controls
Description: as §1

**Q.** For Magainin-2, which “inhibition of biofilm formation” value [1] is on record?
**A.** inhibit biofilm formation

**Q.** And the “C. albicans culture growth” value (Candida albicans)?
**A.** inhibited culture growth

**Q.** And the respiration (C. albicans; hyphal form)?
**A.** suppressed respiration

**Q.** What about the respiration (C. albicans; yeast form) of the same substance?
**A.** suppressed activity

**Q.** What about the respiration (C. tropicalis; hyphal form) of the same substance?
**A.** suppressed respiration

**Q.** And the respiration (C. tropicalis; yeast form)?
**A.** suppressed activity

**Q.** What about the virulence gene expression [2] of the same substance?
**A.** induced expression of several virulence genes
